Series [1] in a line: Absorption and emission spectra in solution. The format is physicochemical. The source says:
Expectedly, the emission spectrum of TBT-2(1P-DPA), and TBT-2(2P-DPA) both ends below 1000 nm, while the emission maximum of TBT-2(TP-DPA) was 1046 nm when upon 808 nm excitation (FIG. 3d). […] The experimental characterization is in consistency with our theoretical hypothesis, which made TBT-2(TP-DPA) ideal candidates as the template of NIR-II theranostic agents.

Series [2] in a line: Absolute fluorescence quantum yield in the NIR region. The format is physicochemical. Particulars: in toluene, under 808 nm excitation. How it is done: Under 808 nm excitation, the absolute quantum yield of TBT-2(TP-DPA) in the NIR region was determined to be 10.4% in toluene.

`CCCCC(CC)Cn1nc2c(-c3ccc(N(c4ccc(OC)cc4)c4ccc(OC)cc4)cc3)c3c(c(-c4ccc(N(c5ccc(OC)cc5)c5ccc(OC)cc5)cc4)c2n1)N=S=N3` (stereo not drawn) [TBT-2(1P-DPA)]: in series [1] (in THE solution), the “absorption ended up to” value is 800 nm and the absorption peak worked out at 580 nm.

As for `CCCCC(CC)Cn1nc2c(-c3ccc(-c4ccc(N(c5ccc(OC)cc5)c5ccc(OC)cc5)cc4)s3)c3c(c(-c4ccc(-c5ccc(N(c6ccc(OC)cc6)c6ccc(OC)cc6)cc5)s4)c2n1)N=S=N3` (stereo not drawn) [TBT-2(TP-DPA)], the “emission wavelength extended to” value in series [1] is recorded as around 1500 nm. Besides, the absorption peak result in series [1] (in THE solution) is “around 800 nm”. Also, the emission maximum in series [1] (upon 808 nm excitation) amounted to 1046 nm. For the same compound, the “absolute quantum yield in the NIR region” value in series [2] came out at 10.4%.

The values are drawn from patent publication US20260137814A1, “FLUORESCENT COMPOUNDS FOR ACCELERATED CANCER THERANOSTIC” (The Hong Kong University of Science and Technology, priority 2022, published 2026).
